Our source for the Activity, IC50 and viability values is ChEMBL document CHEMBL3102738, “Synthesis and biological evaluation of nitric oxide-donating analogues of sulindac for prostate cancer treatment” (Bioorg Med Chem, 2014).

Calls of active or inactive are those of the source. No cut-off for these calls is given here.

Series [1] can be described thus: Induction of NO release in glutathione buffer at 400 uM after 1 hr by Griess assay relative to sulindac. The format is physicochemical. A general note: Griess reagent forms a coloured azo dye with nitrite.
Series [2] can be described thus: Induction of NO release in glutathione buffer assessed as nitrite level at 400 uM after 1 hr by Griess assay (reference value: 3.3 +/- 1.2 uM). Format: physicochemical.
Series [3] relates to PC-3. Kind of series: Cytotoxicity against human PC3 cells after 72 hrs by crystal violet method. The format is functional, cell-based. The following applies: PC-3, 72 h.
Series [4] deals with PC-3. Kind of series: Cytotoxicity against human PC3 cells assessed as cell viability at 500 nM after 72 hrs by crystal violet method. Format: functional. The settings on record: PC-3, 72 h, read-out: Activity.
The test system of series [5] is PC-3. Kind of series: Cytotoxicity against human PC3 cells assessed as cell viability at 50 uM after 72 hrs by crystal violet method (reference value: 95.69 +/- 7.66%). Format: functional. The settings on record: PC-3, 72 h, read-out: Activity.
The subject of series [6] is PC-3. Kind of series: Cytotoxicity against human PC3 cells assessed as cell viability at 50 uM after 48 hrs by crystal violet method (reference value: 100.87 +/- 4.87%). Format: functional. The settings on record: PC-3, 48 h, read-out: Activity.
The test system of series [7] is PC-3. Kind of series: Cytotoxicity against human PC3 cells assessed as cell viability at 50 uM after 24 hrs by crystal violet method (reference value: 99.09 +/- 9.87%). The format is functional. The following applies: PC-3, 24 h, read-out: Activity.
Series [8] relates to PC-3. Kind of series: Cytotoxicity against human PC3 cells at 50 nM after 72 hrs by crystal violet method. The format is functional, cell-based.

For orientation: IC50 means the concentration at which inhibition is half-maximal. A lower IC50 goes with greater potency in that assay. `CSc1ccc(/C=C2/C(C)=C(CC(=O)OCCOc3no[n+]([O-])c3S(=O)(=O)c3ccccc3)c3cc(F)ccc32)cc1`: the Activity in series [1] amounted to 10.3%; in series [2], 41.1 µM. The same molecule displayed an IC50 with PC-3 [3] of 41.4 µM. The viability at 0.5 µM with PC-3 [4] is 11.9%. Besides, the viability at 50 µM with PC-3 [5], in the series on PC-3 [6] and in the series on PC-3 [7] was 0% in each case.

For `CC1=C(CC(=O)OCCCCCCOc2no[n+]([O-])c2S(=O)(=O)c2ccccc2)c2cc(F)ccc2/C1=C\c1ccc([S+](C)[O-])cc1` (stereo not drawn), the Activity in series [1] is 13.6%; in series [2], 54.4 µM. Also, half-maximal inhibition with PC-3 [3] (IC50) was put at 6.1 µM. The result in the series on PC-3 [8] was Active. In addition, the viability at 50 µM in the series on PC-3 [5], with PC-3 [6] and with PC-3 [7] was 0% throughout.

As for `CC1=C(CC(=O)O)c2cc(F)ccc2/C1=C\c1ccc([S+](C)[O-])cc1` (stereo not drawn) [SULINDAC], the results for the Activity in series [1] and in series [2] were under 1% and 1.1 µM, respectively. The results for the viability at 50 µM in the series on PC-3 [5], in the series with PC-3 [6] and in the series on PC-3 [7] were 89.3%, 101% and 87.3%, respectively.

Consider `CSc1ccc(/C=C2/C(C)=C(CC(=O)OCCCCOc3no[n+]([O-])c3S(=O)(=O)c3ccccc3)c3cc(F)ccc32)cc1`, for which the Activity came out at 8.2% in series [1] and 33 µM in series [2]. Further, the IC50 in the series on PC-3 [3] was determined as 40.3 µM. Also, the viability at 0.5 µM with PC-3 [4] amounted to 9.17%. The viability at 50 µM in the series on PC-3 [5], in the series with PC-3 [6] and in the series with PC-3 [7] was 0% each time.

As for `CC1=C(CC(=O)OC/C=C\COc2no[n+]([O-])c2S(=O)(=O)c2ccccc2)c2cc(F)ccc2/C1=C\c1ccc([S+](C)[O-])cc1` (stereo not drawn), the Activity in series [1] was 12.8%; in series [2], 51.1 µM. For the same molecule, inhibition in the series on PC-3 [3] was half-maximal at 12.1 µM (IC50). The outcome in the series on PC-3 [8] was Active. Further, the viability at 50 µM in the series with PC-3 [5], with PC-3 [6] and in the series with PC-3 [7] was 0% each time.
